The subject of data set [1] is P. yoelii nigeriensis (MDR II). Kind of data set: Resistance pattern of P. yoelii nigeriensis (MDR II) strain to antimalarials/antibiotics (oral) in Swiss mice. It counts as in vivo. As to the method:
Swiss mice weighing 20±1 to 25±g of either sex and random laboratory bred at Central Drug Research Institute, Lucknow were used. Mice were routinely infected with 1×10^5 parasitized RBC intraperitoneally using sterile citrate saline as diluent for infected blood. […] From day 4 onwards, tail blood smears were examined after Giemsa staining and percent parasitaemia and mortality was recorded. The parasite (MDR strain) was lethal for Swiss mice and mice died in 6-8 days after developing parasitaemia above 40% to 100% infection of RBC, Mortality was 100% in mice.

The conditions of data set [2]: human, in vivo; cited from earlier work.
A further data set concerns P. falciparum. The following applies: rectal suppository, in 48-56 h; cited from earlier work.
The conditions of data set [3]: im; cited from earlier work.

Structures are written as SMILES.

On to `CCN(CC)Cc1cc(Nc2ccnc3cc(Cl)ccc23)ccc1O` [Amodiaquine], for which the Parasite response entry in data set [1] (128 mg/kg × 4 days) is recorded as “Resistant”.
Still for that read-out and setting: under `CCN(CC)CCCC(C)Nc1ccnc2cc(Cl)ccc12` (stereo not shown) [Chloroquine] stands “Resistant”.
As to `O=C(O)c1cn(C2CC2)c2cc(N3CCNCC3)c(F)cc2c1=O` [Ciprofloxacine], the Parasite response result in data set [1] (50 mg/kg × 4 days) is recorded as “Resistant”.
On to `CN(C)[C@@H]1C(O)=C(C(N)=O)C(=O)[C@@]2(O)C(O)=C3C(=O)c4c(O)ccc(Cl)c4[C@@H](O)[C@H]3C[C@@H]12` [Demeclocycline], for which the Parasite response result in data set [1] (500 mg/kg × 4 days) was “Resistant”.
With `C[C@H]1c2cccc(O)c2C(=O)C2=C(O)[C@]3(O)C(=O)C(C(N)=O)=C(O)[C@@H](N(C)C)[C@@H]3[C@@H](O)[C@@H]21` [Doxycycline], in data set [1] (25 mg/kg × 4 days), the Parasite response result was “Resistant”.
Turning to `CC[C@H]1OC(=O)[C@H](C)[C@@H](O[C@H]2C[C@@](C)(OC)[C@@H](O)[C@H](C)O2)[C@H](C)[C@@H](O[C@@H]2O[C@H](C)C[C@H](N(C)C)[C@H]2O)[C@](C)(O)C[C@@H](C)C(=O)[C@H](C)[C@@H](O)[C@]1(C)O` [Erythromycin], the Parasite response result in data set [1] (250 mg/kg × 4 days) is reported as “Resistant”.
With `CCCCN(CCCC)CCC(O)c1cc2c(Cl)cc(Cl)cc2c2cc(C(F)(F)F)ccc12` (stereo not shown) [Halofantrine], the Cardiotoxicity entry in data set [2] was “increased risk of cardiotoxicity”. Moreover, the Parasite response result in data set [1] (32 mg/kg × 4 days) was “Resistant”.
Take `OC(c1cc(C(F)(F)F)nc2c(C(F)(F)F)cccc12)C1CCCCN1` (stereo not shown) [Mefloquine]: in data set [1] (128 mg/kg × 4 days), the Parasite response entry was “Resistant”.
Still for that read-out and setting: the value for `CCN(CC)CCCC(C)Nc1c2ccc(Cl)cc2nc2ccc(OC)cc12` (stereo not shown) [Mepacrine] was “Resistant”.
With `CCn1cc(C(=O)O)c(=O)c2cc(F)c(N3CCNCC3)cc21` [Norfloxacine], the Parasite response result in data set [1] (50 mg/kg × 4 days) was “Resistant”.
On to `CN(C)C1C(=O)C(C(N)=O)=C(O)C2(O)C(=O)C3=C(O)c4c(O)cccc4C(C)(O)C3C(O)C12` (stereo not shown) [Oxytetracycline], for which, in data set [1] (500 mg/kg × 4 days), the Parasite response entry is recorded as “Resistant”.
With `CCc1nc(N)nc(N)c1-c1ccc(Cl)cc1` [Pyrimethamine], the Parasite response result in data set [1] (16 mg/kg × 4 days) is listed as “Resistant”.
With `C=C[C@H]1C[N@@]2CC[C@H]1C[C@@H]2[C@@H](O)c1ccnc2ccc(OC)cc12` [Quinidine], the Parasite response entry in data set [1] (400 mg/kg × 4 days) was “Resistant”.
Still for that read-out and setting: under `C=C[C@H]1C[N@@]2CC[C@H]1C[C@H]2[C@H](O)c1ccnc2ccc(OC)cc12` [Quinine] stands “Resistant”.
In the case of `CN(C)C1C(=O)C(C(N)=O)=C(O)C2(O)C(=O)C3=C(O)c4c(O)cccc4C(C)(O)C3CC12` (stereo not shown) [Tetracycline], the Parasite response entry in data set [1] (500 mg/kg × 4 days) was “Resistant”.
As for `COc1cc(C)c2c(Oc3cccc(C(F)(F)F)c3)c(OC)cc(NC(C)CCCN)c2n1` (stereo not shown) [WR238605], the Parasite response result in data set [1] (10 mg/kg × 7 days) was “Resistant”.
`C[C@@H]1CC[C@H]2[C@@H](C)C(=O)O[C@@H]3O[C@@]4(C)CC[C@@H]1[C@]32OO4` [artemisinin]: in the data set with P. falciparum, the “Dose needed for complete parasite clearance” value is on record as 2800 mg.
The LD50 is the dose at which mortality reaches 50%. With `C[C@H]1[C@H](OC(=O)CCC(=O)O)O[C@@H]2O[C@@]3(C)CC[C@H]4[C@H](C)CC[C@@H]1[C@@]24OO3` [artesunate], the LD50 in data set [3] is given as 475 mg/kg.

Values taken from patent US6326023A, “Synergistic anti-malarial formulation” (priority 2000, dated 2001).
